This note sets out measurements from ChEMBL document CHEMBL1201862, “PubChem BioAssay data set” (2004).

Some test systems named below: MCF7; RXF 393; NCI/ADR-RES; SF-539; SK-MEL-2; HCC 2998; NCI-H23; UACC-62; K562; SN12C; MDA-MB-231; HCT-116; CCRF-CEM; IGROV-1; OVCAR-4; OVCAR-5; MDA-N; ACHN; SF-268; NCI-H522.
Assay in all cases: DTP human tumour cell line panel, 48 h

The structures appear in SMILES notation.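 The compound was tested at five concentrations on cells cultured in 96-well plates, with a 48-hour exposure period. At the GI50, growth is halved.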 Active and inactive are the calls of the source. No stated cut-off is given here; in the data, active = GI50 up to about 1.1 µM and inactive = higher. Where a SMILES comes first, the peptide text is derived from it. [ ]: non-standard residue; d: D form. The star is where a group is joined. NMeAc5c = CNC1(C(=O)O)CCCC1; Boc = CC(C)(C)OC(=O)*; OBn = c1ccc(CO*)cc1

Take `NC(Cc1ccccc1)C(=O)N[C@H]1c2ccsc2/C(=N/O)[C@H]1O` (stereo partly specified): the GI50 in the assay on MCF7, with RXF 393, in the assay on NCI/ADR-RES, in the assay on SF-539, with SK-MEL-2 and in the assay with HCC 2998 was > 100 µM (inactive) in each case. For the same compound, the GI50 with NCI-H23, in the assay on UACC-62, in the assay on K562, with SN12C, with MDA-MB-231 and with HCT-116 was > 100 µM (inactive) in each case. Moreover, the GI50 with CCRF-CEM, in the assay on IGROV-1, in the assay on OVCAR-4, in the assay on OVCAR-5 and with MDA-N was > 100 µM (inactive) throughout.

As for `Cc1ccc(S(=O)ON2CCC(C(=O)O)(c3ccccc3)CC2)cc1` (stereo unspecified), the GI50 in the assay with MCF7, in the assay on RXF 393, in the assay with NCI/ADR-RES, in the assay on HCC 2998, with NCI-H23 and in the assay on ACHN was > 100 µM (inactive) each time. Further, the GI50 in the assay with UACC-62, in the assay on K562, in the assay with SN12C, with MDA-MB-231, in the assay on HCT-116 and in the assay on CCRF-CEM was > 100 µM (inactive) in each case. Further, the GI50 with SF-268, with NCI-H522, in the assay with IGROV-1, in the assay on OVCAR-4, with OVCAR-5 and in the assay on MDA-N was > 100 µM (inactive) in each case.

For the compound `Cc1c2ccccc2c(CSC(=N)N)c2ccccc12`, the concentration for 50% growth inhibition (GI50) (as a rule, the concentration that inhibits growth by half) in the assay on MCF7 is 0.104 µM (active); with RXF 393 it was 0.0715 µM (active); in the assay on NCI/ADR-RES, 0.234 µM (active); with SF-539, 0.118 µM (active); in the assay with SK-MEL-2 it was 0.192 µM (active); with NCI-H23, 0.106 µM (active). Further, the GI50 in the assay on ACHN is 0.0728 µM (active); with UACC-62, 0.181 µM (active); in the assay on K562, 0.2 µM (active); in the assay with SN12C, 0.152 µM (active); in the assay with MDA-MB-231, 0.276 µM (active); in the assay with HCT-116, 0.189 µM (active). In addition, the concentration for 50% growth inhibition (GI50) in the assay with CCRF-CEM is 0.0203 µM (active); in the assay with SF-268 it was 0.0738 µM (active); in the assay with NCI-H522 it was 0.0348 µM (active); with IGROV-1, 0.312 µM (active); in the assay on OVCAR-4, 0.174 µM (active); in the assay on OVCAR-5, 0.326 µM (active). Further, in the assay with MDA-N, the GI50 is 0.175 µM (active).

For the compound `CN(C(=O)C(Cc1ccccc1)NC(=O)OC(C)(C)C)C1(C(=O)NC(Cc2ccccc2)C(=O)OCc2ccccc2)CCCC1` (stereo not drawn) (Boc-Phe-[NMeAc5c]-Phe-OBn; configuration not given here), the GI50 with MCF7 is 32.1 µM (inactive); in the assay with RXF 393, 44.7 µM (inactive); in the assay with NCI/ADR-RES, 27.7 µM (inactive); with SF-539, 74.3 µM (inactive); with SK-MEL-2 it was 44.3 µM (inactive); in the assay with HCC 2998, 77.4 µM (inactive). Further, the GI50 with NCI-H23 is 43.7 µM (inactive); in the assay on ACHN, 24.9 µM (inactive); in the assay with UACC-62, 24.5 µM (inactive); in the assay with K562, 29.8 µM (inactive); in the assay on SN12C, 46.5 µM (inactive); in the assay on MDA-MB-231, 23.4 µM (inactive). For the same compound, the GI50 was 30.6 µM (inactive) in the assay with HCT-116; 39.7 µM (inactive) in the assay with CCRF-CEM; 35.4 µM (inactive) in the assay on SF-268; 53.6 µM (inactive) with IGROV-1; > 100 µM (inactive) in the assay with OVCAR-4; > 100 µM (inactive) in the assay with OVCAR-5. In addition, the GI50 with MDA-N is 23.2 µM (inactive).

`COC(=O)C1CC(C=[N+](C)C)=C(SC)N1` (stereo unspecified): the GI50 with MCF7, with RXF 393, in the assay with NCI/ADR-RES, with SK-MEL-2, in the assay on HCC 2998 and with NCI-H23 was > 100 µM (inactive) in each case. The GI50 with ACHN, in the assay with UACC-62, in the assay on K562, with MDA-MB-231, with HCT-116 and in the assay with SF-268 was > 100 µM (inactive) in each case. Besides, the GI50 in the assay on NCI-H522, in the assay on IGROV-1, in the assay with OVCAR-4, with OVCAR-5 and in the assay with MDA-N was > 100 µM (inactive) each time.

For the compound `CCOC(=O)Cc1nc2cc(F)c(F)cc2[nH]c1=O`, the GI50 with MCF7, in the assay on RXF 393, in the assay on NCI/ADR-RES, in the assay with SF-539, in the assay with SK-MEL-2 and with HCC 2998 was > 100 µM (inactive) each time. Besides, the GI50 in the assay with NCI-H23, with ACHN, with UACC-62, in the assay on K562, in the assay on SN12C and in the assay on MDA-MB-231 was > 100 µM (inactive) in each case. Moreover, the GI50 with HCT-116, with CCRF-CEM, in the assay on SF-268, in the assay with OVCAR-4, in the assay with OVCAR-5 and with MDA-N was > 100 µM (inactive) in each case.

For the compound `CCOC(=O)c1c(-c2ccc(Cl)cc2)c(C#N)c(=S)n(C2OC(CO)C(O)C(O)C2O)c1-c1ccccc1` (stereo unspecified), the GI50 in the assay on MCF7 is 22.3 µM (inactive); in the assay with RXF 393, 23 µM (inactive); with NCI/ADR-RES, 46.9 µM (inactive); in the assay with SF-539, 19.5 µM (inactive); in the assay with SK-MEL-2, 24.1 µM (inactive); in the assay with HCC 2998, 28.9 µM (inactive). The GI50 in the assay on NCI-H23 was 30.3 µM (inactive); in the assay with ACHN, 35.6 µM (inactive); in the assay with UACC-62 it was 18.7 µM (inactive); with K562, 19.5 µM (inactive); in the assay with SN12C, 38.4 µM (inactive); in the assay with MDA-MB-231 it was 31.2 µM (inactive). Also, the GI50 was 18.7 µM (inactive) with HCT-116; 18.1 µM (inactive) in the assay on CCRF-CEM; 28.1 µM (inactive) in the assay on SF-268; 33.7 µM (inactive) in the assay on IGROV-1; 33.5 µM (inactive) in the assay with OVCAR-4; 21.8 µM (inactive) in the assay on OVCAR-5. Besides, the GI50 with MDA-N was 23 µM (inactive).

Take `CNC(=O)C1CCC(=O)N1CN(C(C)=O)c1ccccc1` (stereo unspecified): the GI50 with MCF7, in the assay on RXF 393, in the assay with NCI/ADR-RES, in the assay on SF-539, in the assay on SK-MEL-2 and with NCI-H23 was > 100 µM (inactive) throughout. Besides, the GI50 with ACHN, in the assay with UACC-62, in the assay on K562, in the assay on SN12C, with MDA-MB-231 and in the assay with HCT-116 was > 100 µM (inactive) each time. Further, the GI50 is 0.0471 µM (active) in the assay on CCRF-CEM; > 100 µM (inactive) in the assay on SF-268; > 100 µM (inactive) with NCI-H522; > 100 µM (inactive) in the assay on IGROV-1; > 100 µM (inactive) in the assay with OVCAR-4; > 100 µM (inactive) with OVCAR-5. The GI50 with MDA-N is > 100 µM (inactive).

Consider `Cc1ccsc1/C=N/NC1=NCCN1`, for which the GI50 in the assay on MCF7, with RXF 393, in the assay on NCI/ADR-RES, in the assay on SK-MEL-2, in the assay on HCC 2998 and in the assay on NCI-H23 was > 100 µM (inactive) in each case. Moreover, the GI50 in the assay on ACHN, in the assay with UACC-62, in the assay with K562, in the assay with SN12C, with MDA-MB-231 and in the assay with HCT-116 was > 100 µM (inactive) each time. Also, the GI50 in the assay with CCRF-CEM, in the assay on SF-268, with IGROV-1, in the assay with OVCAR-4, in the assay on OVCAR-5 and in the assay on MDA-N was > 100 µM (inactive) each time.

In the case of `O=c1[nH]c(=O)n(C2OC(CO)C(O)C2O)cc1OCCCc1ccccc1` (stereo unspecified), the GI50 with MCF7, in the assay with RXF 393, in the assay with NCI/ADR-RES, in the assay with SF-539, in the assay on SK-MEL-2 and with HCC 2998 was > 100 µM (inactive) in each case. The GI50 in the assay on NCI-H23, in the assay with ACHN, in the assay on UACC-62, in the assay with SN12C, with MDA-MB-231 and in the assay on HCT-116 was > 100 µM (inactive) each time. Moreover, the GI50 in the assay on CCRF-CEM, with SF-268, with IGROV-1, with OVCAR-4, in the assay with OVCAR-5 and in the assay on MDA-N was > 100 µM (inactive) throughout.

Regarding `CC(=O)Oc1ccc(-c2nnc(-c3ccc(OC(C)=O)cc3)nn2)cc1`, the GI50 with MCF7 is > 100 µM (inactive); with RXF 393 it was > 100 µM (inactive); with NCI/ADR-RES it was 38.8 µM (inactive); in the assay with SF-539 it was > 100 µM (inactive); with SK-MEL-2, > 100 µM (inactive); in the assay with NCI-H23, > 100 µM (inactive). In addition, the GI50 in the assay with ACHN is 59 µM (inactive); with UACC-62 it was > 100 µM (inactive); in the assay with K562, 55.5 µM (inactive); with SN12C, > 100 µM (inactive); with MDA-MB-231, > 100 µM (inactive); in the assay on HCT-116 it was > 100 µM (inactive). The GI50 is 40.6 µM (inactive) with CCRF-CEM; > 100 µM (inactive) in the assay on SF-268; > 100 µM (inactive) with NCI-H522; > 100 µM (inactive) with IGROV-1; > 100 µM (inactive) in the assay with OVCAR-4; > 100 µM (inactive) in the assay with OVCAR-5. For the same compound, the GI50 in the assay on MDA-N is > 100 µM (inactive).
